The results in this text go back to US20050042236A1, “Plant extract active as an immunostimulating agent” (priority 2001, published 2005).

For this assay, the system named is EA-specific antibodies. Briefly: Production of EA-specific antibodies in mice (Table 2). The assay is classed as in vivo. The following applies: EA 50 μg, BaBb/c mice, preparation 20 μg intraperitoneal. How it is done:
Erythrocytes of defibrinated sheep blood were washed three times by centrifugation (1000 rpm, 10 m)in 50-fold volume of Hanks' solution, and were then re-suspended in the same solution. Mice were immunised intraperitoneally with 2 ml SE, 200 μg BSA or 50 μg EA. The latter two antigens were injected twice, with a 2-4 week interval between immunisations.
The appropriate amount of APG was dissolved in Hank's solution or in physiological saline, 2-3 hours prior to use. APG was administered to mice in doses of between 1 and 1000 μg. When. mice were immunised with BSA, EA or SE, APG was administered simultaneously with the antigen.
The intensity of the immune response in mice which were immunised with SE was determined according to the number of antibody-forming cells (AFC), detected in the spleen cell suspensions using the method of Jerne and Nordin (1963). AFC were detected 4-5 days following immunisation. Presence of antibodies specific to EA or BSA in blood serum of mice was detected using a solid-phase enzyme-immunoassay (EIA). Isotype of antibodies specific to BSA was determined by EIA using secondary rabbit antibodies specific to mouse IgM, IgG1, IgG2a, IgG2b or IgG3.
The lipopeptide was Pam3Cys-Ser-Lys4 a well-known immunoadjuvant.

As for Pam3Cys-Ser-Lys4 [lipopeptide], the “Serum Titer of EA-specific Antibodies” value is 20,000.
